How the values were obtained:
[1] = biological target: Tyrosine-protein kinase Fes/Fps (Homo sapiens) (UniProt P07332); settings: 10 uM
Description: Inhibition of FES at 10 uM

[2] = Volume of distribution at steady state in C57 mouse; type: ADME, organism-based; settings: in vivo, read-out: Vdss
[3] = biological target: Proto-oncogene tyrosine-protein kinase receptor Ret (Homo sapiens) (UniProt P07949); settings: 10 uM
Description: Inhibition of RET at 10 uM

[4] = biological target: T1, Tyrosine-protein kinase receptor TYRO3 (Homo sapiens) (UniProt Q06418); settings: 10 uM
T1 sequence (whole entry): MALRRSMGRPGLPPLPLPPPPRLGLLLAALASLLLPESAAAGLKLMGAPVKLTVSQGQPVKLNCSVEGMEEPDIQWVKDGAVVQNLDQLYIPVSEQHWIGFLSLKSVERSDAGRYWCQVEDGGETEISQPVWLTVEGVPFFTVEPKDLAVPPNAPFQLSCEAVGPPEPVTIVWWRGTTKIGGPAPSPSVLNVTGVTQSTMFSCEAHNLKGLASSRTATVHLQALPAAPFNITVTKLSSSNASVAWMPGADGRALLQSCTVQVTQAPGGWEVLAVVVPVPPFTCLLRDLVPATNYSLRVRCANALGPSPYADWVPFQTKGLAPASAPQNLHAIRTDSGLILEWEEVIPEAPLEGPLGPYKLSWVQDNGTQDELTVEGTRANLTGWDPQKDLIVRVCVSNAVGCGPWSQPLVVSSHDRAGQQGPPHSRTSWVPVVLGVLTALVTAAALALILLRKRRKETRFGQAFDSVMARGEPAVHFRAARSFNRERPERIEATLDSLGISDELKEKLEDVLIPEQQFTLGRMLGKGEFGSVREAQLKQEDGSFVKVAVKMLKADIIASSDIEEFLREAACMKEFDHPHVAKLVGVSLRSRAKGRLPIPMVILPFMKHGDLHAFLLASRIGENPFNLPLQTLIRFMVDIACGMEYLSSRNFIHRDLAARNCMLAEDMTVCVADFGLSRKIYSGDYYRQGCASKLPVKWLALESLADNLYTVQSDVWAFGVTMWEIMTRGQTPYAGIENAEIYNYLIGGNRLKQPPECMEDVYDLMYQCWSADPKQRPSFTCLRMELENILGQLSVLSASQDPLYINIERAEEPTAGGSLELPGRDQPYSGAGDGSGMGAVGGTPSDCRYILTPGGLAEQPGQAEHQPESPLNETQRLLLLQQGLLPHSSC
Description: Inhibition of RSE at 10 uM

[5] = biological target: Mitogen-activated protein kinase kinase kinase kinase 4 (Homo sapiens) (UniProt O95819); settings: 10 uM
Description: Inhibition of HGK at 10 uM

[6] = biological target: T2, Serine/threonine-protein kinase D2 (Homo sapiens) (UniProt Q9BZL6); settings: 10 uM
T2 sequence (whole entry): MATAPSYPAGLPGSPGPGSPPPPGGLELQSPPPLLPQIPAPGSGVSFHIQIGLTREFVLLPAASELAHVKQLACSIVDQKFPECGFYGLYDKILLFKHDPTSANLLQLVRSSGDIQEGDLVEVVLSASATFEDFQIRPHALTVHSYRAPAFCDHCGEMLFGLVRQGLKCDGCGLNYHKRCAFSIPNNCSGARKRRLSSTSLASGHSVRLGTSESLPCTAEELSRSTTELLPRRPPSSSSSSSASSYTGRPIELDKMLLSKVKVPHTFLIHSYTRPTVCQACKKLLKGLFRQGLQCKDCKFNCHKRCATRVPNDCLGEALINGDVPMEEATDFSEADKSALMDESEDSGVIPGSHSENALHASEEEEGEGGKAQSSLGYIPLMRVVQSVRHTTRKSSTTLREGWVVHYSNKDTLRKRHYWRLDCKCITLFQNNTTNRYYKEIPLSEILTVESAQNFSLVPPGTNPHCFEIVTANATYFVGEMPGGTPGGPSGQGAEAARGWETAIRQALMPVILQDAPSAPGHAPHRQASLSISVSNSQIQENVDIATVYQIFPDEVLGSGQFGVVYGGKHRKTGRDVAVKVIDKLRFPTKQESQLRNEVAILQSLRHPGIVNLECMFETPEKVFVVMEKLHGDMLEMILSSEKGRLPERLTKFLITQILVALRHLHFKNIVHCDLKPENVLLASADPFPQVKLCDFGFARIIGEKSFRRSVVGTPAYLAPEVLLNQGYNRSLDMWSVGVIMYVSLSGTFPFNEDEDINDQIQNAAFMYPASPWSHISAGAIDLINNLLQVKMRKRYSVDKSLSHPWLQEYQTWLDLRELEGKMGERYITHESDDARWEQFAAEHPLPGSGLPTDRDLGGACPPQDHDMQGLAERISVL
Description: Inhibition of PKD at 10 uM

[7] = Oral bioavailability in C57 mouse; type: ADME, organism-based; settings: in vivo
[8] = biological target: Serine/threonine-protein kinase SIK2 (Homo sapiens) (UniProt Q9H0K1); settings: 10 uM
Serine/threonine-protein kinase SIK2 (Homo sapiens), sequence (Q9H0K1 whole entry, looked up): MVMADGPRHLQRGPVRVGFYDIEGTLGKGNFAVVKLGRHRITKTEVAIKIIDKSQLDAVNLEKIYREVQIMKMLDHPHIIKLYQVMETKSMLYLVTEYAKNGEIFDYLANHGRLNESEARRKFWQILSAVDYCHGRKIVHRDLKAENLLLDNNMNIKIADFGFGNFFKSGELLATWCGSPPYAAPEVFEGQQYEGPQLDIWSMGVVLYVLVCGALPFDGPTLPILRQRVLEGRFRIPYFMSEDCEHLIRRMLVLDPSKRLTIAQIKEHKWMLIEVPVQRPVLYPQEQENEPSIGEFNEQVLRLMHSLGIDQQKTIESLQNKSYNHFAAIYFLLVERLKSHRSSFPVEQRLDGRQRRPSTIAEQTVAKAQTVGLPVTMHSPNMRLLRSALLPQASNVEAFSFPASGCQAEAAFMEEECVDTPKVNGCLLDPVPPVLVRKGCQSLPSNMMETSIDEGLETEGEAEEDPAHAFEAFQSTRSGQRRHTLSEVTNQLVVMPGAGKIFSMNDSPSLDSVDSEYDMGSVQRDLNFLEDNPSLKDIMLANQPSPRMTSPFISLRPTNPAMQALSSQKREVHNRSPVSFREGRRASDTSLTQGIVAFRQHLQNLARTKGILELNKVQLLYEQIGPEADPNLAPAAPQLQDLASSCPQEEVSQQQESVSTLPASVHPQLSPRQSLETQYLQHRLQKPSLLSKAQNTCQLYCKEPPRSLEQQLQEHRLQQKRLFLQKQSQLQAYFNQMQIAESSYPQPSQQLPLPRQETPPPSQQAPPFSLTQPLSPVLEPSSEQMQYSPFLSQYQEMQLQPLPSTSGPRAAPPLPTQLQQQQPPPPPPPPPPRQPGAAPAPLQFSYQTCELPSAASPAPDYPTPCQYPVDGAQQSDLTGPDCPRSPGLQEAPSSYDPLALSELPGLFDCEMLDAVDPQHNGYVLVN
Description: Inhibition of SNFILK2 at 10 uM

[9] = biological target: Platelet-derived growth factor receptor alpha (Homo sapiens) (UniProt P16234); settings: 10 uM
Platelet-derived growth factor receptor alpha (Homo sapiens), sequence (P16234 whole entry): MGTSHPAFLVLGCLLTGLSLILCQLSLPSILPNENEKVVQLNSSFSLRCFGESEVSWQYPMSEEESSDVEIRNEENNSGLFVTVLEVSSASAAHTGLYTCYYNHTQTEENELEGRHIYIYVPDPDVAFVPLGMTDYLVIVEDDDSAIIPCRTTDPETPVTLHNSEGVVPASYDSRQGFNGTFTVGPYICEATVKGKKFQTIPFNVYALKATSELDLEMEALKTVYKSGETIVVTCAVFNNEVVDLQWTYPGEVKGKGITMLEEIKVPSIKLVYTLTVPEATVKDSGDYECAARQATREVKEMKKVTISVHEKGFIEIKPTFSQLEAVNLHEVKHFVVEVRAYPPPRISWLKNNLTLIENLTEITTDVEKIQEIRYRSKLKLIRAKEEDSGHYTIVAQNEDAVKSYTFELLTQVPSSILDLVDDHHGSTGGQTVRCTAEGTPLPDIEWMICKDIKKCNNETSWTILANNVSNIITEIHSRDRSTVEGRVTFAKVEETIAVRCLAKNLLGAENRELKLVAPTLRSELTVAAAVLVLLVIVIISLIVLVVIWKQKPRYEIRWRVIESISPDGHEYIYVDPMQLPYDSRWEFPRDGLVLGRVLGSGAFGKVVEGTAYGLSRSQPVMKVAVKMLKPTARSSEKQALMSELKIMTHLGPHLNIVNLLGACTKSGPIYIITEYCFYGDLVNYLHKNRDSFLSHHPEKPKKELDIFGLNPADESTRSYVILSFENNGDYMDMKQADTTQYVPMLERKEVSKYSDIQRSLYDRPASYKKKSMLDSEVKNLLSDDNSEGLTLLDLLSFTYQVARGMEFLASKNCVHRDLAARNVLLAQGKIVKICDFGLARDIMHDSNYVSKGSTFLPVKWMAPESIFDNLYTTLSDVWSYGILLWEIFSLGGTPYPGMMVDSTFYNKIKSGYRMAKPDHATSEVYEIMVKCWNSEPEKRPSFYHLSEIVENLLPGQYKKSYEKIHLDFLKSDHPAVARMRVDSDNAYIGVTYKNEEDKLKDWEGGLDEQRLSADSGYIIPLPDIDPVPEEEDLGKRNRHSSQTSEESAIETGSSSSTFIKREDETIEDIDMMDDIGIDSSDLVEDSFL
Description: Inhibition of PDGFRA at 10 uM

[10] = Half life in C57 mouse; type: ADME, organism-based; settings: in vivo
[11] = Permeability from apical to basolateral side of human Caco2 cells; type: ADME, cell-based; settings: Caco-2, read-out: permeability
[12] = Plasma clearance in C57 mouse; type: ADME, organism-based
[13] = biological target: Angiopoietin-1 receptor (Homo sapiens) (UniProt Q02763); settings: 10 uM
Angiopoietin-1 receptor (Homo sapiens), sequence (Q02763 whole entry): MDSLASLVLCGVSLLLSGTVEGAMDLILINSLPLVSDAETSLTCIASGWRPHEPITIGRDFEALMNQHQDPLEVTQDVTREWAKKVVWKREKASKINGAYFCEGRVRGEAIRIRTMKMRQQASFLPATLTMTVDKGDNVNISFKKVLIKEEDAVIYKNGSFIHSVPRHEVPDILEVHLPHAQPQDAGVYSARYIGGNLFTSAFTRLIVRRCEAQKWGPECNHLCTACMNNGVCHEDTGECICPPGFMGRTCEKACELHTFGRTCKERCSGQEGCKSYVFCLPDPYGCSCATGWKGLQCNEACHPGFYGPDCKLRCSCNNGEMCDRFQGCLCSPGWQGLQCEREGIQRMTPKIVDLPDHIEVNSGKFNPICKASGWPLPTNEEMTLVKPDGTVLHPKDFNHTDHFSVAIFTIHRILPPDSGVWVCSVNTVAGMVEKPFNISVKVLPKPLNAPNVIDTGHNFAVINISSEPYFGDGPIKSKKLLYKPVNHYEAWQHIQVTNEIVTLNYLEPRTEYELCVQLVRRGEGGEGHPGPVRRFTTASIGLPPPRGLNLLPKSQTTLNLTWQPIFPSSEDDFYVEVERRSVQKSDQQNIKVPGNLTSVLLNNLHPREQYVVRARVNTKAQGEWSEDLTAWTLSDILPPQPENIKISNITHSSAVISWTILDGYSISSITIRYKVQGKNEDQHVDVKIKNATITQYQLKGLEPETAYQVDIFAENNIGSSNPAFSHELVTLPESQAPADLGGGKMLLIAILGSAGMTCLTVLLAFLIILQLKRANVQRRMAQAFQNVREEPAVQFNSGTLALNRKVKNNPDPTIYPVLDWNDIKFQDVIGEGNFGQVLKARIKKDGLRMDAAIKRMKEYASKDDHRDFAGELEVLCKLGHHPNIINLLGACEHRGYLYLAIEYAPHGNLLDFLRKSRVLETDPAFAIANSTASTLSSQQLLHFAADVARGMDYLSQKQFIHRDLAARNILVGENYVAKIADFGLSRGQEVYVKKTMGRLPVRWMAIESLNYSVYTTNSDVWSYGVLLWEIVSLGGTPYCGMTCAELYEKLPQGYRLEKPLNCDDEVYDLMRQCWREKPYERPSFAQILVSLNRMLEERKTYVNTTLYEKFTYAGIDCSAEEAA
Description: Inhibition of Tie2 at 10 uM

Tyrosine-protein kinase Fes/Fps (Homo sapiens), sequence (P07332 whole entry): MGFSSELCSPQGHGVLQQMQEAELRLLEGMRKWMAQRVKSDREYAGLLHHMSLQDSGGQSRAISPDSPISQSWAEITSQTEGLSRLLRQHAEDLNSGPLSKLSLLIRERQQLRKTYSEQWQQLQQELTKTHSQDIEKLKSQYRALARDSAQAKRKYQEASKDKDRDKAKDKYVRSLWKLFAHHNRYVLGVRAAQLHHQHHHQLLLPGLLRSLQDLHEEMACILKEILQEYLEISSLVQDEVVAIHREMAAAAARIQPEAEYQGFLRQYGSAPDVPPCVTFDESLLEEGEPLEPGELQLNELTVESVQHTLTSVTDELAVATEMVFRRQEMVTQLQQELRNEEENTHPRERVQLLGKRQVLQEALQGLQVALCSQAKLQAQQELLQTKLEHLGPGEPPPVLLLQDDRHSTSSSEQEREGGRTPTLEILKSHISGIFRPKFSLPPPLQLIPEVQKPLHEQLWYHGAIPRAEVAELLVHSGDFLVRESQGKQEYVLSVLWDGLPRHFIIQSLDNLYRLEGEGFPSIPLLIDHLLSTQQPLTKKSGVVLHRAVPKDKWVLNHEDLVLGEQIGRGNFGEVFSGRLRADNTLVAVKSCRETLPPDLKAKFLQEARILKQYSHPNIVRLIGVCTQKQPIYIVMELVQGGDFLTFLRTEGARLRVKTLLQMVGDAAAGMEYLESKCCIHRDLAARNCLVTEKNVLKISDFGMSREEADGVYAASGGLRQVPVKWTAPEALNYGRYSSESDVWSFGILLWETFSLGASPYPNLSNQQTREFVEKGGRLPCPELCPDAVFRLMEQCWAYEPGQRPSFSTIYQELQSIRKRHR
Proto-oncogene tyrosine-protein kinase receptor Ret (Homo sapiens), sequence (P07949 whole entry): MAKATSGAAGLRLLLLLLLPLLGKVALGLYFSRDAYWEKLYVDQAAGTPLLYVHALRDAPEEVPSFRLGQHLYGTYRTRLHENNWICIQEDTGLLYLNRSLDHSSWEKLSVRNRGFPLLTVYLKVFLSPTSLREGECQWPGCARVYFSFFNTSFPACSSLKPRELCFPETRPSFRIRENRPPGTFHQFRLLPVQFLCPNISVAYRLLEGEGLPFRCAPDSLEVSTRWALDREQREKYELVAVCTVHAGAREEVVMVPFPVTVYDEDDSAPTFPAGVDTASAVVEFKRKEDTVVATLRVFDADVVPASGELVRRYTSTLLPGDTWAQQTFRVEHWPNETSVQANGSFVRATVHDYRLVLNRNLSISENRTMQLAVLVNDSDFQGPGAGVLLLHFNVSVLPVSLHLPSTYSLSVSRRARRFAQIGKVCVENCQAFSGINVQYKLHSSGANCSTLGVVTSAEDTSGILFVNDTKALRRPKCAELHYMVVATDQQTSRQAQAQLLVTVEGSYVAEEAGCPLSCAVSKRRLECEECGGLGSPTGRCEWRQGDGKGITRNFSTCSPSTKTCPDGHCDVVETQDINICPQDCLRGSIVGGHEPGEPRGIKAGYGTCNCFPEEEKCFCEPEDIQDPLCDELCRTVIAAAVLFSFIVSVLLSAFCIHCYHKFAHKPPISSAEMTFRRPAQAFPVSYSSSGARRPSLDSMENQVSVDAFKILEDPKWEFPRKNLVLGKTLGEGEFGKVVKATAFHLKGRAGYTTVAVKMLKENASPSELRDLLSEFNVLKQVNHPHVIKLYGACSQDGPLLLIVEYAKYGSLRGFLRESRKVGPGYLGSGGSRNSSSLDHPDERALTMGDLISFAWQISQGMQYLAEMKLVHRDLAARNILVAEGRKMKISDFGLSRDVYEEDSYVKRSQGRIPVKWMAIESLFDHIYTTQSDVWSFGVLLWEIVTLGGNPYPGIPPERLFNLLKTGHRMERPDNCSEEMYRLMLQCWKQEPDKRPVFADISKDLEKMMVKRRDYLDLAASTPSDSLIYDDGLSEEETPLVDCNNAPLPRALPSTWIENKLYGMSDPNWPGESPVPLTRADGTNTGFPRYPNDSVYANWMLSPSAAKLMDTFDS

inhibition [1]: > 80% | Vd [2]: 11 L/kg | inhibition [3]: > 80% | inhibition [4]: > 80% | inhibition [5]: > 80% | inhibition [6]: > 80% | bioavailability [7]: > 75% | inhibition [8]: > 80% | inhibition [9]: > 80% | half-life [10]: 5.8 h | Papp A→B [11]: 6.3 ×10⁻⁶ cm/s | clearance [12]: 9.5 mL/min/kg | inhibition [13]: > 80%
SMILES: Nc1nccc2cc(O[C@H]3CCCNC3)ccc12
